In PMC8130708 (Journal of medicinal chemistry, 2021):
Entries after “also recorded” stand apart in the source; their conditions may differ.

Key:
NSD2-PWWP1 [1] = target: T1, NSD2-PWWP1 (Homo sapiens, UniProt O96028); experiment: Differential static light scattering; assay type: binding; details: read-out: increase of melting temperature of N-terminal PWWP domain of NSD2
T1 sequence (O96028 211-350): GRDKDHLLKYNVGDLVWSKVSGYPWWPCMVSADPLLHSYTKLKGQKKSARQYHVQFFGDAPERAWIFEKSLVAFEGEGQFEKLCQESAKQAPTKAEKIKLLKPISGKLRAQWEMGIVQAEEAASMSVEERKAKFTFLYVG

PWWP domains = details: DSLS
NSD2-PWWP1 [2] = target: T2, NSD2-PWWP1 (Homo sapiens, UniProt O96028); assay type: binding; details: for potency on NSD2-PWWP1, SAR statement in words: relative to parent compound 2 or 3, Tables 1 and 2 (images, DSLS/SPR)
T2 sequence (O96028 222-286 limits assumed): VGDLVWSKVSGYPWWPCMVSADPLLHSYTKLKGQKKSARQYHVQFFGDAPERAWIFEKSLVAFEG

Row | Compound | potency on NSD2-PWWP1, SAR statement in words (NSD2-PWWP1 [2]) | other results
1 | N#Cc1ccc(C(C(N)=O)N2CCC2c2ccc(Cl)cc2)cc1 (centres unmarked) [Compound 1] |  | ΔTm at 400 µM (NSD2-PWWP1 [1]): 4 °C; binding to six other PWWP-containing proteins (PWWP domains; compound at 400 μM (Table S2)): did not bind
2 | N#Cc1ccc(C(=O)N2CCCC2c2ccccc2)cc1 (centres unmarked) [Compound 2a] | improved potency | 
3 | COc1ccc(C2CCCN2C(=O)c2ccc(C#N)cc2)cc1 (centres unmarked) [Compound 2b] | no significant effect | 
4 | O=C(c1ccccc1)N1CCCC1c1ccccc1 (centres unmarked) [Compound 2h] | abolished activity | 
5 | Cc1ccc(C(=O)N2CCCC2c2ccc(Cl)cc2)cc1 (centres unmarked) [Compound 2i] | abolished activity | 
6 | N#Cc1ccc(C(=O)N(Cc2ccc(F)cc2)C2CC2)cc1 [Compound 3] |  | fold more potent than compound 1 (NSD2-PWWP1 [2]; ratio of SPR Kd values): 6; fold more potent than compound 2 (NSD2-PWWP1 [2]; ratio of SPR Kd values): 25
7 | CN(Cc1ccc(F)cc1)C(=O)c1ccc(C#N)cc1 [Compound 3a] | much weaker or completely inactive | 
8 | N#Cc1ccc(C(=O)NCc2ccc(F)cc2)cc1 [Compound 3b] | much weaker or completely inactive | 
9 | N#Cc1ccc(C(=O)N(Cc2cccs2)C2CC2)cc1 [Compound 3f] |  | binding / effect on melting temperature in a panel of 10 PWWP domains (PWWP domains; compound at 100 μM (Figure 2C)): only bound NSD2-PWWP1; also recorded: only affects the melting temperature of NSD2-PWWP1
